Laboratory results published in ChEMBL document CHEMBL3885861, “Open TG-GATES”.

Organism: Rattus norvegicus
Assay: Open TG-GATES - Regimen: Daily Repeat
Type: toxicity, organism-based, Sprague-Dawley
Parameters: regimen Daily Repeat, gender Male, age 6 weeks
Conditions: in vivo, po, route gavage; for APTT / Bas / Eos / Fbg / Hb / Ht / Lym / MCH / MCHC / MCV / Mono / Neu / PT / Plat / RBC / Ret / WBC: tissue Blood; for ALP / ALT / AST / BUN / CRE / DBIL / GLC / IP / K / Na / PL / RALB / TBIL / TC / TG / TP / gamma-GTP: tissue Plasma
[1] = 100 mg/kg, 72 h, dose level Middle, time 3 day
[2] = 100 mg/kg, […], dose level Middle, time 7 day
[3] = 100 mg/kg, […], dose level Middle, time 14 day
[4] = 100 mg/kg, […], dose level Middle, time 28 day
[5] = 300 mg/kg, 72 h, dose level High, time 3 day
[6] = 300 mg/kg, […], dose level High, time 7 day
[7] = 300 mg/kg, […], dose level High, time 14 day
[8] = 300 mg/kg, […], dose level High, time 28 day

## NS(=O)(=O)c1cc(C(=O)O)c(NCc2ccco2)cc1Cl [FUROSEMIDE]
[1]
  TERMINAL_BW: 230.7 g
  APTT: 16.9 s
  Bas: 0%
  Eos: 0.8%
  Fbg: 296.8 mg/dL
  Hb: 13.1 g/dL
  Ht: 38.3%
  Lym: 81.2%
  MCH: 21.4 pg
  MCHC: 34.1%
  MCV: 62.7 fL
  Mono: 2.2%
  Neu: 14.8%
  PT: 15 s
  Plat: 123 x10_4/uL
  RBC: 611.2 x10_4/ul
  Ret: 4.2%
  WBC: 107.2 x10_2/uL
  ALP: 1617.4 IU/L
  ALT: 47.4 IU/L
  AST: 68.8 IU/L
  BUN: 22.8 mg/dL
  CRE: 0.2 mg/dL
  DBIL: 0.014 mg/dL
  GLC: 176.6 mg/dL
  IP: 6.3 mg/dL
  K: 3.6 meq/L
  Na: 141.4 meq/L
  PL: 174 mg/dL
  RALB: 2.6 g/dL
  TBIL: 0.054 mg/dL
  TC: 90 mg/dL
  TG: 65 mg/dL
  TP: 5.6 g/dL
  gamma-GTP: 0.4 IU/L
[2]
  TERMINAL_BW: 247.4 g
  APTT: 17.5 s
  Bas: 0.4%
  Eos: 1.2%
  Fbg: 278 mg/dL
  Hb: 14.1 g/dL
  Ht: 40.4%
  Lym: 82%
  MCH: 20.8 pg
  MCHC: 34.9%
  MCV: 59.7 fL
  Mono: 1.8%
  Neu: 13.8%
  PT: 16 s
  Plat: 114.3 x10_4/uL
  RBC: 678.6 x10_4/ul
  Ret: 4.3%
  WBC: 110.3 x10_2/uL
  ALP: 1748.4 IU/L
  ALT: 43.8 IU/L
  AST: 73.4 IU/L
  BUN: 17.8 mg/dL
  CRE: 0.2 mg/dL
  DBIL: 0.012 mg/dL
  GLC: 179 mg/dL
  IP: 6.2 mg/dL
  K: 3.8 meq/L
  Na: 142.4 meq/L
  PL: 152 mg/dL
  RALB: 2.6 g/dL
  TBIL: 0.044 mg/dL
  TC: 71.4 mg/dL
  TG: 84.4 mg/dL
  TP: 5.7 g/dL
  gamma-GTP: 0.2 IU/L
[3]
  TERMINAL_BW: 311 g
  APTT: 16.7 s
  Bas: 0.6%
  Eos: 1%
  Fbg: 253.8 mg/dL
  Hb: 14.7 g/dL
  Ht: 42.1%
  Lym: 82.2%
  MCH: 20.5 pg
  MCHC: 34.9%
  MCV: 58.6 fL
  Mono: 2%
  Neu: 13.2%
  PT: 15.7 s
  Plat: 108.7 x10_4/uL
  RBC: 717.4 x10_4/ul
  Ret: 3.8%
  WBC: 124.3 x10_2/uL
  ALP: 1743.4 IU/L
  ALT: 44.2 IU/L
  AST: 78.6 IU/L
  BUN: 24.6 mg/dL
  CRE: 0.2 mg/dL
  DBIL: 0.016 mg/dL
  GLC: 177 mg/dL
  IP: 6.5 mg/dL
  K: 3.7 meq/L
  Na: 143.8 meq/L
  PL: 160.6 mg/dL
  RALB: 2.6 g/dL
  TBIL: 0.048 mg/dL
  TC: 78.4 mg/dL
  TG: 107.6 mg/dL
  TP: 5.7 g/dL
  gamma-GTP: 0.6 IU/L
[4]
  TERMINAL_BW: 380.8 g
  APTT: 17.5 s
  Bas: 1%
  Eos: 1%
  Fbg: 251.8 mg/dL
  Hb: 14.7 g/dL
  Ht: 42.7%
  Lym: 80%
  MCH: 19.2 pg
  MCHC: 34.5%
  MCV: 55.6 fL
  Mono: 1.6%
  Neu: 16.2%
  PT: 15.7 s
  Plat: 98.3 x10_4/uL
  RBC: 769.2 x10_4/ul
  Ret: 2.5%
  WBC: 125.7 x10_2/uL
  ALP: 1073.6 IU/L
  ALT: 42.8 IU/L
  AST: 70.4 IU/L
  BUN: 24 mg/dL
  CRE: 0.2 mg/dL
  DBIL: 0.02 mg/dL
  GLC: 178.2 mg/dL
  IP: 5.7 mg/dL
  K: 3.7 meq/L
  Na: 144.8 meq/L
  PL: 143.4 mg/dL
  RALB: 2.6 g/dL
  TBIL: 0.052 mg/dL
  TC: 66 mg/dL
  TG: 109.2 mg/dL
  TP: 6 g/dL
  gamma-GTP: 0.4 IU/L
[5]
  TERMINAL_BW: 189.1 g
  APTT: 20.9 s
  Bas: 0.4%
  Eos: 0.8%
  Fbg: 315.2 mg/dL
  Hb: 16.5 g/dL
  Ht: 47%
  Lym: 80%
  MCH: 20.8 pg
  MCHC: 35.1%
  MCV: 59.3 fL
  Mono: 2.6%
  Neu: 15.8%
  PT: 15.6 s
  Plat: 124.2 x10_4/uL
  RBC: 794 x10_4/ul
  Ret: 2%
  WBC: 116.4 x10_2/uL
  ALP: 1596.8 IU/L
  ALT: 46.2 IU/L
  AST: 67.4 IU/L
  BUN: 41.8 mg/dL
  CRE: 0.2 mg/dL
  DBIL: 0.02 mg/dL
  GLC: 164.6 mg/dL
  IP: 5.7 mg/dL
  K: 3 meq/L
  Na: 136.4 meq/L
  PL: 169.6 mg/dL
  RALB: 2.9 g/dL
  TBIL: 0.082 mg/dL
  TC: 90.2 mg/dL
  TG: 48.4 mg/dL
  TP: 6.2 g/dL
  gamma-GTP: 1.2 IU/L
[6]
  TERMINAL_BW: 216.8 g
  APTT: 16.2 s
  Bas: 0.4%
  Eos: 1%
  Fbg: 291 mg/dL
  Hb: 15 g/dL
  Ht: 42.7%
  Lym: 81.6%
  MCH: 20.8 pg
  MCHC: 35.2%
  MCV: 59.3 fL
  Mono: 2.2%
  Neu: 14.4%
  PT: 16.2 s
  Plat: 97.2 x10_4/uL
  RBC: 720.2 x10_4/ul
  Ret: 2.4%
  WBC: 121.9 x10_2/uL
  ALP: 1629.6 IU/L
  ALT: 50.2 IU/L
  AST: 71 IU/L
  BUN: 27 mg/dL
  CRE: 0.2 mg/dL
  DBIL: 0.018 mg/dL
  GLC: 169.8 mg/dL
  IP: 4.9 mg/dL
  K: 3.5 meq/L
  Na: 141.8 meq/L
  PL: 164.8 mg/dL
  RALB: 2.7 g/dL
  TBIL: 0.062 mg/dL
  TC: 80.6 mg/dL
  TG: 67 mg/dL
  TP: 5.9 g/dL
  gamma-GTP: 0.4 IU/L
[7]
  TERMINAL_BW: 243.1 g
  APTT: 17 s
  Bas: 0.5%
  Eos: 1%
  Fbg: 309.5 mg/dL
  Hb: 15.3 g/dL
  Ht: 43.5%
  Lym: 80%
  MCH: 19.9 pg
  MCHC: 35.2%
  MCV: 56.5 fL
  Mono: 2%
  Neu: 15.5%
  PT: 15.9 s
  Plat: 102.8 x10_4/uL
  RBC: 769.5 x10_4/ul
  Ret: 3.6%
  WBC: 113 x10_2/uL
  ALP: 1713 IU/L
  ALT: 48.2 IU/L
  AST: 79 IU/L
  BUN: 28.8 mg/dL
  CRE: 0.2 mg/dL
  DBIL: 0.0175 mg/dL
  GLC: 174 mg/dL
  IP: 5.5 mg/dL
  K: 3.4 meq/L
  Na: 142.8 meq/L
  PL: 171.8 mg/dL
  RALB: 2.7 g/dL
  TBIL: 0.0575 mg/dL
  TC: 83 mg/dL
  TG: 84.2 mg/dL
  TP: 5.9 g/dL
  gamma-GTP: 0.5 IU/L
[8]
  TERMINAL_BW: 317.2 g
  APTT: 16 s
  Bas: 1%
  Eos: 1.2%
  Fbg: 265.8 mg/dL
  Hb: 15.6 g/dL
  Ht: 45.6%
  Lym: 80.8%
  MCH: 19.3 pg
  MCHC: 34.3%
  MCV: 56.5 fL
  Mono: 2%
  Neu: 15.2%
  PT: 16 s
  Plat: 91 x10_4/uL
  RBC: 806.5 x10_4/ul
  Ret: 2%
  WBC: 106.7 x10_2/uL
  ALP: 1444.8 IU/L
  ALT: 44.2 IU/L
  AST: 72.2 IU/L
  BUN: 30.8 mg/dL
  CRE: 0.2 mg/dL
  DBIL: 0.0175 mg/dL
  GLC: 174.8 mg/dL
  IP: 5.1 mg/dL
  K: 3.5 meq/L
  Na: 144.5 meq/L
  PL: 150.2 mg/dL
  RALB: 2.7 g/dL
  TBIL: 0.055 mg/dL
  TC: 69.8 mg/dL
  TG: 92.2 mg/dL
  TP: 6 g/dL
  gamma-GTP: 0.5 IU/L
